The text below walks through data of PMC12277336, “Hypericum empetrifolium subsp. empetrifolium: an assessment of its antifungal, antidiabetic, anti-aging, and neuroprotective potential” (Frontiers in Pharmacology, 2025).

Assay [1] concerns Enterococcus faecalis ATCC 29212. Kind of assay: MIC, broth microdilution. The settings on record: ATCC29212. The format is cell-based. The method, then: (§1) The Minimum Inhibitory Concentrations (MIC) of the extracts were determined using the broth microdilution method in accordance with the guidelines of the Clinical and Laboratory Standards Institute (CLSI) ([Clinical and Laboratory Standards Institute, 2020]). The procedure was originally based on the CLSI M27-A2 standard (1997) ([[…]]) for antifungal susceptibility testing, while the updated fourth edition (2017) was referenced to reflect current methodological standards ([[…]]).
(§2) The inocula of the tested bacterial and yeast strains were prepared following CLSI protocols, and the extracts were dissolved in DMSO to prepare stock solutions. Serial dilutions ranging from 1,250 to 0.06 μ g/mL were performed in Mueller-Hinton Broth (for bacterial strains) and RPMI-1640 medium (for yeast strains). MIC values of the extracts were determined against four g (−) bacterial strains (P. aeruginosa ATCC 27853, Escherichia coli ATCC 25922, Klebsiella pneumoniae ATCC 4352, Proteus mirabilis ATCC 14153), three g (+) bacterial strains (Staphylococcus aureus ATCC 29213, Staphylococcus epidermidis ATCC 12228, Enterococcus faecalis ATCC 29212), and three yeast strains (Candida albicans ATCC 10231, Candida parapsilosis ATCC 22019, Candida tropicalis ATCC 750).
Background: In broth dilution the organism is exposed to a series of concentrations in liquid medium.

Assay [2] has as its system Candida tropicalis ATCC 750. Kind of assay: MIC, broth microdilution. Particulars: ATCC750, C. tropicalis ATCC 750. The format is cell-based. As for the experimental part: as §1, §2
Assay [3] relates to Candida parapsilosis ATCC 22019. Put plainly: MIC, broth microdilution. Format: cell-based. The settings on record: Lodderomyces parapsilosis, ATCC22019; C. parapsilosis ATCC 22019. The method, then: as §1, §2
Assay [4] is described as follows: Cupric reducing antioxidant capacity (CUPRAC). The settings on record: 450 nm. As for the experimental part: The absorbance of this chelate formation is then quantified at a wavelength of 450 nm. In the CUPRAC method, according to the procedure developed by Apak et al.; Cu (II), neocuproine (2,9-dimethyl-1,10-phenanthroline), and NH4OAc buffer were added to the sample and standard solutions to achieve final concentrations of 10, 25, 50, and 100 μ g/mL. After an incubation period of 1 h, the absorbance was measured at 450 nm. BHA, BHT, and α -TOC were used as positive control ([Apak et al., 2004]).

A short description of assay [5]: DPPH free radical scavenging assay. As for the experimental part:
The DPPH radical scavenging assay was evaluated using 1,1-diphenyl-2-picrylhydrazyl (DPPH) free radical according to the method developed by [Blois (1958)]. Extracts were dissolved in methanol at a concentration of 1 mg/mL to prepare the primary stock solutions. Aliquots of these solutions, in volumes of 2, 5, 10, and 20 μ L, were each diluted to a final volume of 40 μ L with methanol. Subsequently, 160 μ L of DPPH solution at a 0.1 mM concentration was introduced to each mixture. After the solutions were incubated at room temperature in the dark for 30 min, their absorbance was measured at a wavelength of 517 nm. BHA, BHT, and α -TOC were used as positive control.
A general note: Loss of DPPH colour is used to gauge radical scavenging.

Assay [6] is described as follows: ABTS cation radical scavenging assay. The method, then:
The ABTS cation radical scavenging assay was evaluated using 2,2′-azino-bis(3-ethylbenzothiazoline-6-sulfonic acid) according to the method developed by [Re et al. (1999)]. Extracts were dissolved in methanol at a concentration of 1 mg/mL to prepare the primary stock solutions. Aliquots of these solutions, in volumes of 2, 5, 10, and 20 μ L, were each diluted to a final volume of 40 μ L with methanol. Subsequently, 160 μ L of ABTS cation radical solution at a 7 mM concentration was introduced to each mixture. The reactions were allowed to proceed in darkness for 6 min, subsequent to which the absorbance was recorded at a wavelength of 734 nm. BHA, BHT, and α -TOC were used as positive control.

A further assay deals with P. aeruginosa ATCC 27853. Kind of assay: MIC, broth microdilution. Format: cell-based. Particulars: Pseudomonas aeruginosa, ATCC27853. The method, then:
as §1, §2

In assay [7] the test system is Staphylococcus epidermidis ATCC 12228. Kind of assay: MIC, broth microdilution. The format is cell-based. Particulars: S. epidermidis ATCC 12228. The method, then:
as §1, §2

The test system of assay [8] is Escherichia coli ATCC 25922. Kind of assay: MIC, broth microdilution. The format is cell-based. The settings on record: E. coli ATCC 25922. The method, then: as §1, §2
Assay [9] deals with Staphylococcus aureus ATCC 29213. Put plainly: MIC, broth microdilution. The format is cell-based. Particulars: S. aureus ATCC 29213. As for the experimental part:
as §1, §2

In assay [10] the test system is Proteus mirabilis ATCC 14153. Put plainly: MIC, broth microdilution. The format is cell-based. Particulars: P. mirabilis ATCC 14153. The method, then: as §1, §2
For assay [11], the system named is Klebsiella pneumoniae ATCC 4352. Kind of assay: MIC, broth microdilution. Particulars: K. pneumoniae ATCC 4352. The format is cell-based. The method, then: as §1, §2
In assay [12] the test system is Candida albicans ATCC 10231. Kind of assay: MIC, broth microdilution. The format is cell-based. The settings on record: ATCC10231, C. albicans ATCC 10231. The method, then: as §1, §2
Assay [13] deals with T1, Porcine pancreatic elastase (Sus scrofa, UniProt P00772).
T1 construct: Porcine pancreatic elastase (E.C. 3.4.21.36); from tissue; host or cells: porcine pancreas
T1 sequence (P00772 27-266): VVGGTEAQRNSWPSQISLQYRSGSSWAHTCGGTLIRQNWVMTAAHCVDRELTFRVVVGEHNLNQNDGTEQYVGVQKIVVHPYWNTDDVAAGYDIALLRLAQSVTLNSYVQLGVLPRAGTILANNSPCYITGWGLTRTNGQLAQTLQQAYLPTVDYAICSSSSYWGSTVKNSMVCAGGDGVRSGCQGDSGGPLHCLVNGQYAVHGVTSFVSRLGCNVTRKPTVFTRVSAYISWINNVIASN
Kind of assay: Anti-elastase assay. The format is biochemical. The method, then:
The elastase inhibition assay was conducted using a spectrophotometric method developed by [Lee et al. (1999)]. Porcine pancreatic elastase (E.C. 3.4.21.36) at a concentration of 3.33 mg/mL was used as the enzyme and dissolved in 0.2 mM Tris-HCl buffer (pH 8.0). The substrate, N-Succinyl-Ala-Ala-Ala-p-nitroanilide (SANA), was prepared in the same buffer at a concentration of 1.6 mM. For each reaction, 50 μ L of buffer, 25 μ L of enzyme solution, and 50 μ L of the test extract were pre-incubated at room temperature for 15 min before the addition of SANA. Epigallocatechin gallate (EGCG) was used as the positive control, while ethanol served as the negative control. The reaction was initiated by adding 125 μ L of the substrate solution to the mixture, followed by incubation at room temperature for 20 min. The absorbance change was then measured at 410 nm.

Another assay addresses α-Glucosidase. Particulars: flavonoids isolated from H. attenuatum; ref Jin et al., 2021; cited from earlier work.

Converted amounts (≈) assume the structure as drawn. “And” between values parts separate entries of the source, which are not always exact repeats. Identical values can stand only once.

In assay [1], `NCC[C@H](O)C(=O)N[C@@H]1C[C@H](N)[C@@H](O[C@H]2O[C@H](CN)[C@@H](O)[C@H](O)[C@H]2O)[C@H](O)[C@H]1O[C@H]1O[C@H](CO)[C@@H](O)[C@H](N)[C@H]1O` [Amikacin] returned an MIC of 128 µg/mL (≈ 219 µM).
As to `C[C@@H]1[C@H](O)[C@@H](C)/C=C/C=C/C=C/C=C/C=C/C=C/C=C/[C@H](O[C@@H]2O[C@H](C)[C@@H](O)[C@H](N)[C@@H]2O)C[C@@H]2O[C@](O)(C[C@@H](O)C[C@@H](O)[C@H](O)CC[C@@H](O)C[C@@H](O)CC(=O)O[C@H]1C)C[C@H](O)[C@H]2C(=O)O` [Amphotericin B], the MIC in assay [2] is 0.5 µg/mL (≈ 0.541 µM); in assay [3], 1 µg/mL (≈ 1.08 µM).
Consider `COc1ccc(O)c(C(C)(C)C)c1` [BHA], for which the “CUPRAC (Absorbance)” value in assay [4] (10 µg/mL) was 0.838 ± 0.03; in [4] (25 µg/mL), 1.647 ± 0.18; in assay [4] (50 µg/mL) it was 2.753 ± 0.09; in [4] (100 µg/mL), 3.769 ± 0.05 and 3.769. Also, the “DPPH (% Inhibition)” value in assay [5] (10 µg/mL) was 62.00 ± 0.90%; in assay [5] (25 µg/mL) it was 71.86 ± 0.76%; in assay [5] (50 µg/mL), 74.48 ± 0.35%; in [5] (100 µg/mL), 75.23%. Moreover, the “ABTS (% Inhibition)” value turned out to be 63.94 ± 0.18% in assay [6] (10 µg/mL), 78.23 ± 1.08% in [6] (25 µg/mL), 87.41 ± 0.16% in [6] (50 µg/mL) and 87.62% in assay [6] (100 µg/mL).
Take `Cc1cc(C(C)(C)C)c(O)c(C(C)(C)C)c1` [BHT]: the “CUPRAC (Absorbance)” value in assay [4] (10 µg/mL) was 0.652 ± 0.01; in assay [4] (25 µg/mL) it was 1.211 ± 0.18; in assay [4] (50 µg/mL), 2.040 ± 0.31; in [4] (100 µg/mL) it was 3.559 ± 0.27 and 3.559. Besides, the “DPPH (% Inhibition)” value in assay [5] (10 µg/mL) was determined as 39.28 ± 1.03%; in assay [5] (25 µg/mL), 60.68 ± 4.18%; in [5] (50 µg/mL), 69.14 ± 1.84%; in assay [5] (100 µg/mL) it was 76.17%. Further, the “ABTS (% Inhibition)” value is on record as 76.35 ± 0.78% in assay [6] (10 µg/mL), 88.00 ± 2.49% in assay [6] (25 µg/mL), 88.96 ± 0.13% in assay [6] (50 µg/mL) and 89.13% in assay [6] (100 µg/mL).
In turn, `CC(C)(O/N=C(\C(=O)N[C@@H]1C(=O)N2C(C(=O)[O-])=C(C[n+]3ccccc3)CS[C@H]12)c1csc(N)n1)C(=O)O` [Ceftazidime] registered a minimum inhibitory concentration (MIC) in the assay on P. aeruginosa ATCC 27853 of 2.4 µg/mL (≈ 4.39 µM).
On to `CO/N=C(\C(=O)N[C@@H]1C(=O)N2C(C(=O)[O-])=C(COC(N)=O)CS[C@H]12)c1ccco1.[Na+]` [Cefuroxime-Na], for which the MIC in [7] came out at 9.8 µg/mL; in assay [8] it was 4.9 µg/mL; in assay [9] it was 1.2 µg/mL; in assay [10] it was 2.4 µg/mL; in assay [11], 4.9 µg/mL.
Turning to `Clc1ccccc1C(c1ccccc1)(c1ccccc1)n1ccnc1` [Clotrimazole], inhibition of growth in assay [12] (MIC) required 4.9 µg/mL (≈ 14.2 µM).
`C[C@H]1[C@H](C)CC[C@]2(C(=O)O)CC[C@]3(C)C(=CC[C@@H]4[C@@]5(C)CC[C@H](O)C(C)(C)[C@@H]5CC[C@]43C)[C@H]12` [Ursolic acid]: half-maximal inhibition in assay [13] (IC50) was put at 30.2 µM.
As for `O=c1c(O[C@@H]2OC[C@H](O)[C@H](O)[C@H]2O)c(-c2ccc(O)c(O)c2)oc2cc(O)cc(O)c12` [guaijaverin], the IC50 on α-Glucosidase is 17.2 ± 0.75 µM.
On to `Cc1c(C)c2c(c(C)c1O)CC[C@@](C)(CCC[C@H](C)CCC[C@H](C)CCCC(C)C)O2` [α-TOC], for which the “CUPRAC (Absorbance)” value in [4] (10 µg/mL) is 0.391 ± 0.01; in assay [4] (25 µg/mL), 0.904 ± 0.00; in assay [4] (50 µg/mL), 1.563 ± 0.09; in assay [4] (100 µg/mL), 2.460 ± 0.09 and 2.460. The “DPPH (% Inhibition)” value in [5] (10 µg/mL) amounted to 63.28 ± 3.28%; in [5] (25 µg/mL), 73.51 ± 4.14%; in [5] (50 µg/mL), 76.94 ± 0.71%; in [5] (100 µg/mL), 78.07%. Further, the “ABTS (% Inhibition)” value stood at 65.39 ± 2.37% in [6] (10 µg/mL), 83.47 ± 0.98% in [6] (25 µg/mL), 85.89 ± 2.62% in [6] (50 µg/mL) and 88.89% in assay [6] (100 µg/mL).

As a reminder, the MIC is the smallest concentration in the dilution series that meets the test's criterion for growth inhibition. Lower therefore signals a more susceptible organism. For orientation: IC50 means the midpoint of a concentration-inhibition curve.
